In ChEMBL document CHEMBL3232789, “Design and synthesis of novel 2H-chromen-2-one derivatives bearing 1,2,3-triazole moiety as lead antimicrobials” (2014):

Tested on: Bacillus subtilis
Assay: Antibacterial activity against Bacillus subtilis MTCC 441 assessed as growth inhibition at 100 ug/mL after 14 hrs by cup plate method
Type: functional
Settings: MTCC 441, 14 h, read-out: DIZ

Compound	zone of inhibition at 100 µg/mL
Cc1cc(=O)oc2cc(OCCCCCCn3cc(CN4C(=O)c5ccccc5C4=O)nn3)ccc12	12.8 mm
Cc1cc(=O)oc2cc(OCc3cn(CCN4C(=O)c5ccccc5C4=O)nn3)ccc12	10.5 mm
Cc1cc(=O)oc2cc(OCc3cn(CCCN4C(=O)c5ccccc5C4=O)nn3)ccc12	12.5 mm
Cc1cc(=O)oc2cc(OCc3cn(CCCCN4C(=O)c5ccccc5C4=O)nn3)ccc12	11.6 mm
Cc1cc(=O)oc2cc(OCc3cn(CCCCCN4C(=O)c5ccccc5C4=O)nn3)ccc12	13.6 mm
Cc1cc(=O)oc2cc(OCCCCN=[N+]=[N-])ccc12	11.3 mm
Cc1cc(=O)oc2cc(OCCCCCCN=[N+]=[N-])ccc12	12.5 mm

Tested on: Aspergillus niger
Assay: Antifungal activity against Aspergillus niger MTCC 282 assessed as growth inhibition at 100 ug/mL after 30 hrs by cup plate method
Type: functional
Settings: MTCC 282, 30 h, read-out: DIZ

Compound	zone of inhibition at 100 µg/mL
Cc1cc(=O)oc2cc(OCCCCCCn3cc(CN4C(=O)c5ccccc5C4=O)nn3)ccc12	13.9 mm
Cc1cc(=O)oc2cc(OCc3cn(CCN4C(=O)c5ccccc5C4=O)nn3)ccc12	14.4 mm
Cc1cc(=O)oc2cc(OCc3cn(CCCN4C(=O)c5ccccc5C4=O)nn3)ccc12	13.2 mm
Cc1cc(=O)oc2cc(OCc3cn(CCCCN4C(=O)c5ccccc5C4=O)nn3)ccc12	13.5 mm
Cc1cc(=O)oc2cc(OCc3cn(CCCCCN4C(=O)c5ccccc5C4=O)nn3)ccc12	12.3 mm
Cc1cc(=O)oc2cc(OCCCCN=[N+]=[N-])ccc12	13.1 mm
Cc1cc(=O)oc2cc(OCCCCCCN=[N+]=[N-])ccc12	13.8 mm

Tested on: Escherichia coli
Assay: Antibacterial activity against Escherichia coli MTCC 443 assessed as growth inhibition at 100 ug/mL after 14 hrs by cup plate method
Type: functional
Settings: MTCC 443, 14 h, read-out: DIZ

Compound	zone of inhibition at 100 µg/mL
Cc1cc(=O)oc2cc(OCCCCCCn3cc(CN4C(=O)c5ccccc5C4=O)nn3)ccc12	13.4 mm
Cc1cc(=O)oc2cc(OCc3cn(CCN4C(=O)c5ccccc5C4=O)nn3)ccc12	14.5 mm
Cc1cc(=O)oc2cc(OCc3cn(CCCN4C(=O)c5ccccc5C4=O)nn3)ccc12	12.6 mm
Cc1cc(=O)oc2cc(OCc3cn(CCCCN4C(=O)c5ccccc5C4=O)nn3)ccc12	12.4 mm
Cc1cc(=O)oc2cc(OCc3cn(CCCCCN4C(=O)c5ccccc5C4=O)nn3)ccc12	12.5 mm
Cc1cc(=O)oc2cc(OCCCCN=[N+]=[N-])ccc12	13 mm
Cc1cc(=O)oc2cc(OCCCCCCN=[N+]=[N-])ccc12	14.3 mm

Tested on: Candida albicans
Assay: Antifungal activity against Candida albicans MTCC 227 assessed as growth inhibition at 100 ug/mL after 30 hrs by cup plate method
Type: functional
Settings: MTCC 227, 30 h, read-out: DIZ

Compound	zone of inhibition at 100 µg/mL
Cc1cc(=O)oc2cc(OCCCCCCn3cc(CN4C(=O)c5ccccc5C4=O)nn3)ccc12	14.9 mm
Cc1cc(=O)oc2cc(OCc3cn(CCN4C(=O)c5ccccc5C4=O)nn3)ccc12	20.2 mm
Cc1cc(=O)oc2cc(OCc3cn(CCCN4C(=O)c5ccccc5C4=O)nn3)ccc12	18.6 mm
Cc1cc(=O)oc2cc(OCc3cn(CCCCN4C(=O)c5ccccc5C4=O)nn3)ccc12	16.6 mm
Cc1cc(=O)oc2cc(OCc3cn(CCCCCN4C(=O)c5ccccc5C4=O)nn3)ccc12	16.9 mm
Cc1cc(=O)oc2cc(OCCCCN=[N+]=[N-])ccc12	19.3 mm
Cc1cc(=O)oc2cc(OCCCCCCN=[N+]=[N-])ccc12	18.7 mm

Tested on: Klebsiella pneumoniae
Assay: Antibacterial activity against Klebsiella pneumoniae MTCC 432 assessed as growth inhibition at 100 ug/mL after 14 hrs by cup plate method
Type: functional
Settings: MTCC 432, 14 h, read-out: DIZ

Compound	zone of inhibition at 100 µg/mL
Cc1cc(=O)oc2cc(OCCCCCCn3cc(CN4C(=O)c5ccccc5C4=O)nn3)ccc12	12.9 mm
Cc1cc(=O)oc2cc(OCc3cn(CCN4C(=O)c5ccccc5C4=O)nn3)ccc12	13.3 mm
Cc1cc(=O)oc2cc(OCc3cn(CCCN4C(=O)c5ccccc5C4=O)nn3)ccc12	14.4 mm
Cc1cc(=O)oc2cc(OCc3cn(CCCCN4C(=O)c5ccccc5C4=O)nn3)ccc12	11.6 mm
Cc1cc(=O)oc2cc(OCc3cn(CCCCCN4C(=O)c5ccccc5C4=O)nn3)ccc12	12.6 mm
Cc1cc(=O)oc2cc(OCCCCN=[N+]=[N-])ccc12	12.5 mm
Cc1cc(=O)oc2cc(OCCCCCCN=[N+]=[N-])ccc12	14.5 mm

Tested on: Staphylococcus aureus
Assay: Antibacterial activity against Staphylococcus aureus MTCC 096 assessed as growth inhibition at 100 ug/mL after 14 hrs by cup plate method
Type: functional
Settings: MTCC 096, 14 h, read-out: DIZ

Compound	zone of inhibition at 100 µg/mL
Cc1cc(=O)oc2cc(OCCCCCCn3cc(CN4C(=O)c5ccccc5C4=O)nn3)ccc12	12.9 mm
Cc1cc(=O)oc2cc(OCc3cn(CCN4C(=O)c5ccccc5C4=O)nn3)ccc12	13 mm
Cc1cc(=O)oc2cc(OCc3cn(CCCN4C(=O)c5ccccc5C4=O)nn3)ccc12	12.8 mm
Cc1cc(=O)oc2cc(OCc3cn(CCCCN4C(=O)c5ccccc5C4=O)nn3)ccc12	12.6 mm
Cc1cc(=O)oc2cc(OCc3cn(CCCCCN4C(=O)c5ccccc5C4=O)nn3)ccc12	12.5 mm
Cc1cc(=O)oc2cc(OCCCCN=[N+]=[N-])ccc12	13.5 mm
Cc1cc(=O)oc2cc(OCCCCCCN=[N+]=[N-])ccc12	15.7 mm

Tested on: Pseudomonas aeruginosa
Assay: Antibacterial activity against Pseudomonas aeruginosa MTCC 424 assessed as growth inhibition at 100 ug/mL after 14 hrs by cup plate method
Type: functional
Settings: MTCC 424, 14 h, read-out: DIZ

Compound	zone of inhibition at 100 µg/mL
Cc1cc(=O)oc2cc(OCCCCCCn3cc(CN4C(=O)c5ccccc5C4=O)nn3)ccc12	12.8 mm
Cc1cc(=O)oc2cc(OCc3cn(CCN4C(=O)c5ccccc5C4=O)nn3)ccc12	13 mm
Cc1cc(=O)oc2cc(OCc3cn(CCCN4C(=O)c5ccccc5C4=O)nn3)ccc12	13.1 mm
Cc1cc(=O)oc2cc(OCc3cn(CCCCN4C(=O)c5ccccc5C4=O)nn3)ccc12	14 mm
Cc1cc(=O)oc2cc(OCc3cn(CCCCCN4C(=O)c5ccccc5C4=O)nn3)ccc12	12.9 mm
Cc1cc(=O)oc2cc(OCCCCN=[N+]=[N-])ccc12	12.8 mm
Cc1cc(=O)oc2cc(OCCCCCCN=[N+]=[N-])ccc12	13 mm

Tested on: Staphylococcus epidermidis
Assay: Antibacterial activity against Staphylococcus epidermidis MTCC 435 assessed as growth inhibition at 100 ug/mL after 14 hrs by cup plate method
Type: functional
Settings: MTCC 435, 14 h, read-out: DIZ

Compound	zone of inhibition at 100 µg/mL
Cc1cc(=O)oc2cc(OCCCCCCn3cc(CN4C(=O)c5ccccc5C4=O)nn3)ccc12	12.6 mm
Cc1cc(=O)oc2cc(OCc3cn(CCN4C(=O)c5ccccc5C4=O)nn3)ccc12	12.4 mm
Cc1cc(=O)oc2cc(OCc3cn(CCCN4C(=O)c5ccccc5C4=O)nn3)ccc12	11.4 mm
Cc1cc(=O)oc2cc(OCc3cn(CCCCN4C(=O)c5ccccc5C4=O)nn3)ccc12	12.8 mm
Cc1cc(=O)oc2cc(OCc3cn(CCCCCN4C(=O)c5ccccc5C4=O)nn3)ccc12	12.6 mm
Cc1cc(=O)oc2cc(OCCCCN=[N+]=[N-])ccc12	12.7 mm
Cc1cc(=O)oc2cc(OCCCCCCN=[N+]=[N-])ccc12	13.5 mm

Tested on: Salmonella typhi
Assay: Antibacterial activity against Salmonella typhi MTCC 733 assessed as growth inhibition at 100 ug/mL after 14 hrs by cup plate method
Type: functional, Salmonella enterica subsp. enterica serovar Typhi
Settings: Salmonella enterica, MTCC 733, 14 h; read-out: DIZ

Compound	zone of inhibition at 100 µg/mL
Cc1cc(=O)oc2cc(OCCCCCCn3cc(CN4C(=O)c5ccccc5C4=O)nn3)ccc12	12.4 mm
Cc1cc(=O)oc2cc(OCc3cn(CCN4C(=O)c5ccccc5C4=O)nn3)ccc12	11.9 mm
Cc1cc(=O)oc2cc(OCc3cn(CCCN4C(=O)c5ccccc5C4=O)nn3)ccc12	12.3 mm
Cc1cc(=O)oc2cc(OCc3cn(CCCCN4C(=O)c5ccccc5C4=O)nn3)ccc12	12.5 mm
Cc1cc(=O)oc2cc(OCc3cn(CCCCCN4C(=O)c5ccccc5C4=O)nn3)ccc12	12.7 mm
Cc1cc(=O)oc2cc(OCCCCN=[N+]=[N-])ccc12	12.9 mm
Cc1cc(=O)oc2cc(OCCCCCCN=[N+]=[N-])ccc12	12.4 mm

Tested on: Aspergillus fumigatus
Assay: Antifungal activity against Aspergillus fumigatus MTCC 343 assessed as growth inhibition at 100 ug/mL after 30 hrs by cup plate method
Type: functional
Settings: MTCC 343, 30 h, read-out: DIZ

Compound	zone of inhibition at 100 µg/mL
Cc1cc(=O)oc2cc(OCCCCCCn3cc(CN4C(=O)c5ccccc5C4=O)nn3)ccc12	18.5 mm
Cc1cc(=O)oc2cc(OCc3cn(CCN4C(=O)c5ccccc5C4=O)nn3)ccc12	19.5 mm
Cc1cc(=O)oc2cc(OCc3cn(CCCN4C(=O)c5ccccc5C4=O)nn3)ccc12	21.3 mm
Cc1cc(=O)oc2cc(OCc3cn(CCCCN4C(=O)c5ccccc5C4=O)nn3)ccc12	18.9 mm
Cc1cc(=O)oc2cc(OCc3cn(CCCCCN4C(=O)c5ccccc5C4=O)nn3)ccc12	23.4 mm
Cc1cc(=O)oc2cc(OCCCCN=[N+]=[N-])ccc12	18.6 mm
Cc1cc(=O)oc2cc(OCCCCCCN=[N+]=[N-])ccc12	19 mm

Tested on: Aspergillus flavus
Assay: Antifungal activity against Aspergillus flavus MTCC 277 assessed as growth inhibition at 100 ug/mL after 30 hrs by cup plate method
Type: functional
Settings: MTCC 277, 30 h, read-out: DIZ

Compound	zone of inhibition at 100 µg/mL
Cc1cc(=O)oc2cc(OCCCCCCn3cc(CN4C(=O)c5ccccc5C4=O)nn3)ccc12	15.2 mm
Cc1cc(=O)oc2cc(OCc3cn(CCN4C(=O)c5ccccc5C4=O)nn3)ccc12	12.5 mm
Cc1cc(=O)oc2cc(OCc3cn(CCCN4C(=O)c5ccccc5C4=O)nn3)ccc12	16.4 mm
Cc1cc(=O)oc2cc(OCc3cn(CCCCN4C(=O)c5ccccc5C4=O)nn3)ccc12	14.8 mm
Cc1cc(=O)oc2cc(OCc3cn(CCCCCN4C(=O)c5ccccc5C4=O)nn3)ccc12	14.5 mm
Cc1cc(=O)oc2cc(OCCCCN=[N+]=[N-])ccc12	13.6 mm
Cc1cc(=O)oc2cc(OCCCCCCN=[N+]=[N-])ccc12	16.4 mm
